Measurements taken from paper PMC8840081, “Phenylalanine-Based AMPA Receptor Antagonist as the Anticonvulsant Agent with Neuroprotective Activity—In Vitro and In Vivo Studies” (Molecules, 2022).

What was measured:
[1] = system: PTZ-induced clonic seizures in mice; test: PTZ seizure test; assay type: in vivo; conditions: PTZ 100 mg/kg s.c.; compound 100 mg/kg i.p.
Method: Behavioral experiments were carried out in male Albino Swiss (CD-1) mice weighing 18–22 g. The mice were kept in cages, in groups of 10 animals. They had free access to food and water before experiments, and were maintained at room temperature 22–24 °C, under 12:12 (light/dark) cycle. For the assays the animals were selected randomly. After the experiments the animals were euthanized by cervical dislocation. Experimental procedures for in vivo tests were approved by the Local Ethics Committee of the Jagiellonian University in Krakow (Approval No. 33/2018; release date: 1.02.2018) and the treatment of animals was performed in full accordance with ethical standards laid down in respective Polish and EU regulations (Directive 2010/63/EU).
Oxaliplatin was purchased from Activate Scientific GmbH (Prien, Germany). PTZ and STZ were provided by Merck KGaA (Darmstadt, Germany). For the in vivo tests, the compound 1 was suspended in 1% Tween 80 solution (Polskie Odczynniki Chemiczne, Gliwice, Poland), then being administered intraperitoneally 1 h before tests. […]
This test was carried out according to the method recently described. […] In this assay the latency to the occurrence of the first clonic seizure episode was measured and compared in drug-treated and control mice. […] The number of seizure episodes was also recorded in each group. • 6-Hz Test

[2] = system: IMR-32 neuroblastoma cells; test: neuroprotection against 6-OHDA-induced LDH release; assay type: cell-based, human; conditions: IMR-32, compound 50 µM, 1 h pretreatment, 200 µM 6-OHDA, 24 h
Method: (§1) All cell culture protocols and assay conditions were applied as we reported previously. SH-SY5Y (ATCC® CRL-2266™) cell line was purchased from ATCC (Manassas, VA, USA). IMR-32 (ATCC® CCL-127™) cell line was kindly provided by the Department of Oncogenomics, Academisch Medisch Centrum, Amsterdam, Holland. Before each test SH-SY5Y or IMR-32 cells were seeded in 96-well plates with transparent bottom at a concentration of 2.5 × 10^4 cells/well in 100 μL of respective cell culture medium and cultured for 24 h to reach 70% confluence. • Cell Viability
(§2) CytoTox-ONE™ Homogeneous Membrane Integrity Assay, which based on the LDH release, was purchased from Promega (Madison, WI, USA). SH-SY5Y or IMR-32 cells were seeded in 96-well white plates with transparent bottom. For neuroprotective studies, the cells were preincubated first for 1 h with compound 1, 8 or reference antioxidants AA, TX (all at the concentration of 50 μM) and next the neurotoxin 6-OHDA (Sigma-Aldrich, Inc., St. Louis, MO, USA) was added at final concentration of 50 μM (SH-SY5Y assay) or 200 µM (IMR-32 assay). After 24 h of incubation, the CytoTox-ONE™ was added to each well and the cells were incubated next for 10 min at room temperature. The fluorescence was measured using a microplate reader EnSpire (PerkinElmer, Waltham, MA, USA) with an excitation wavelength of 560 nm and an emission wavelength of 590 nm. All measurements were performed in triplicate and results are shown as mean ± SD. The similar studies were also performed with SH-SY5Y cells injured by 100 μM of 6-OHDA (Figure S1, Supporting Materials). • ROS Assay

[3] = system: SH-SY5Y neuroblastoma cells; test: neuroprotection against 6-OHDA-induced LDH release; assay type: cell-based, human; conditions: compound 50 µM
Method: as §1, §2

NC(Cc1cc(-c2cc(O)ccc2O)c(Cl)c([N+](=O)[O-])c1)C(=O)O (centres unmarked) [Compound 1]
latency to first clonus [1]: not able to prolong latency to the first clonus | number of seizure episodes [1]: remained unaffected | 6-OHDA-induced release of LDH (neuroprotection) [2]: statistically significant decrease | 6-OHDA-induced release of LDH (neuroprotection) ([3]; 100 µM 6-OHDA): neuroprotective effect was not observed | 6-OHDA-induced release of LDH (neuroprotection) ([3]; 1 h pretreatment, 50 µM 6-OHDA, 24 h): statistically significant decrease
